We go through 90 sequences from the OligoGym collection.

Values joined by “and” are separate entries in the source; they are usually repeats but may differ in a detail not shown here. Identical values can stand only once. After the bases stand the sugars from the 5' end (letter, count) and the backbone: PS all phosphorothioate, else s phosphorothioate and o phosphodiester by linkage. Methylation of C is not given here. e = 2'-O-(2-methoxyethyl) (MOE); k = constrained ethyl (cEt); d = 2'-deoxy (DNA)

For the first data set, the target named is IRF4. The note with it: ASO, H929, 0.04 µM.
Take TAGTATGAGAAACGGC (sugars k3 d10 k3, PS): the target mRNA inhibition was 33% and 47%.

Still in this data set, the particulars now being: ASO, KMS11, 0.2 µM.
With TAGTATGAGAAACGGC (sugars k3 d10 k3, PS), the target mRNA inhibition was 65% and 85%.

Still in this data set, the particulars now being: ASO, MM.1R, 0.0625 µM.
On to TGGTTGGCTGGTCTTT (sugars k3 d10 k3, PS), for which the target mRNA inhibition is 6%. With GAGTGAGATGCGGAGG (sugars k3 d10 k3, PS), the target mRNA inhibition amounted to 6%.

Staying with this data set, now noted: ASO, MM.1R, 0.074 µM.
Take “AGTTGTAAATGAGTCG (sugars kkdddddddddekeke, PS)”: the target mRNA inhibition turned out to be 17%.

Staying with this data set, now noted: ASO, MM.1R, 0.222 µM.
“AGTTGTAAATGAGTCG (sugars kkdddddddddekeke, PS)”: the target mRNA inhibition came out at 44%.

The same data set, now with this note: ASO, MM.1R, 0.25 µM.
Take TGGTTGGCTGGTCTTT (sugars k3 d10 k3, PS): the target mRNA inhibition worked out at 40%. Same read-out and setting: then GAGTGAGATGCGGAGG (sugars k3 d10 k3, PS), with 0%.

Staying with this data set, now noted: ASO, MM.1R, 0.666 µM.
As for “AGTTGTAAATGAGTCG (sugars kkdddddddddekeke, PS)”, the target mRNA inhibition is 67%.

Still in this data set, the particulars now being: ASO, MM.1R, 1 µM.
Consider TCCTATTATAGAGCAT (sugars k3 d10 k3, PS), for which the target mRNA inhibition turned out to be 3%. On the same count and under the same terms, then “CACATCAATGTTTTAG (sugars kkddddddddddkeke, PS)”, with 25% and 39%; and “AGCTTGATAAAGGCTG (sugars k3 d9 k3 e1, PS)”, with 2%. Same read-out and setting: the figure for TGAGGCATACAGTGTG (sugars k3 d10 k3, PS) is 18%. Same read-out and setting: then GTTACCGCATTGCTAG (sugars k3 d10 k3, PS), with 16%.

As to “AAGCTTGATAAAGGCT (sugars kkkdddddddddkeke, PS)”, the target mRNA inhibition was -18%. For “CTGTTACCGATGCTTC (sugars kkdddddddddekeke, PS)”, the target mRNA inhibition is 50% and 60%.

For the sequence “CTGCTTGAGGTTTTCC (sugars kkdddddddddkekek, PS)”, the target mRNA inhibition is 30%. Still for that read-out and setting: the figure for AGGCACCGCACTCCGG (sugars k3 d10 k3, PS) is -13%; for CCCCTTAGGAACGAAG (sugars k3 d10 k3, PS) it is -6%; for “AAGTTCATGTAAAGTC (sugars kkddddddddddkeke, PS)” it is 28% and 20%. For TGTTTTAAGAGGCGAC (sugars k3 d10 k3, PS), the target mRNA inhibition was found to be 3%. In the case of TTACTAATTCCATAGA (sugars k3 d10 k3, PS), the target mRNA inhibition came to 3%. Regarding TTATGTTAGCCAATTC (sugars k3 d10 k3, PS), the target mRNA inhibition was 9% and 22%. CGGGAGCCCGGAGGAA (sugars k3 d10 k3, PS): the target mRNA inhibition is -3%. In the case of TTTAAGAGGCGACTGC (sugars k3 d10 k3, PS), the target mRNA inhibition was -100%. Same read-out and setting: then “TGTTACCGATGCTTCA (sugars kdddddddddkekeke, PS)”, with 10% and 13%. On the same count and under the same terms, then TGGTTGGCTGGTCTTT (sugars k3 d10 k3, PS), with 88% and 69%; and GAGGAAGTCCCCTTCC (sugars k3 d10 k3, PS), with 4%. The same measure, in the same setting: the figure for CTGGCCTGAAGCTTAG (sugars k3 d10 k3, PS) is 25%; for “ATGTGATAGCTGAGCT (sugars kkdddddddddekeke, PS)” it is 2%. With ATTACTCTTAGGCACA (sugars k3 d10 k3, PS), the target mRNA inhibition came to 30%.

Regarding TCTTTAAAATATCGCC (sugars k3 d10 k3, PS), the target mRNA inhibition is -45%.

As to GCTAGCAGGAGCGAGA (sugars k3 d10 k3, PS), the target mRNA inhibition is -5%. Take “AGTTGTAAATGAGTCG (sugars kkdddddddddekeke, PS)”: the target mRNA inhibition is 73%. Still for that read-out and setting: the figure for TGTGGTTTCACATGAT (sugars k3 d10 k3, PS) is 21%; for GGAGAGGGCGACGACA (sugars k3 d10 k3, PS) it is -1%; for “GGTTGGCTGGTCTTTG (sugars kkdddddddddkdkdk, PS)” it is 64%. Take TGTACAGGACAGGTAA (sugars k3 d10 k3, PS): the target mRNA inhibition was found to be 8%. Turning to CACATGATAAGGCACT (sugars k3 d10 k3, PS), the target mRNA inhibition stood at 21%. For the sequence TTTCTACAAGGTCTGA (sugars k3 d10 k3, PS), the target mRNA inhibition came to 3%.

As to “CCTCAGTTTGTGAAGC (sugars kddddddddddkekek, PS)”, the target mRNA inhibition was determined as 26%. Same read-out and setting: then “TACTGCTTGAGGTTTT (sugars kddddddddddkekek, PS)”, with 24%; and “TGTGATAGCTGAGCTG (sugars kddddddddddkekek, PS)”, with -2%.

With “CTGTTACCGATGCTTC (sugars kkdddddddddkdkdk, PS)”, the target mRNA inhibition is 58% and 52%. The same measure, in the same setting: the figure for “GGAAGTTTACACTGGA (sugars k2 d9 e3 k2, PS)” is 47%. The same measure, in the same setting: the figure for TCAGAATGTTTCGACA (sugars k3 d10 k3, PS) is 6%. On the same count and under the same terms, then GCCTTCAGCGGTTTCC (sugars k3 d10 k3, PS), with 4%; and GTCATTGCTCTTGTTC (sugars k3 d10 k3, PS), with 18%; and GGTATTTTTCCGTTCC (sugars k3 d10 k3, PS), with 30%.

Still in this data set, the particulars now being: ASO, MM.1R, 2 µM.
Take “AGTTGTAAATGAGTCG (sugars kkdddddddddekeke, PS)”: the target mRNA inhibition was 86%.

Still in this data set, the particulars now being: ASO, MM.1R, 4 µM.
TGGTTGGCTGGTCTTT (sugars k3 d10 k3, PS): the target mRNA inhibition was determined as 89%. The same measure, in the same setting: the figure for GAGTGAGATGCGGAGG (sugars k3 d10 k3, PS) is 67%.

Staying with this data set, now noted: ASO, SK-MEL-28, 4 µM.
For the sequence GGGCGACGACAGCTGC (sugars k3 d10 k3, PS), the target mRNA inhibition is 32%. Same read-out and setting: the figure for GGGCAACAGTTCAAGT (sugars k3 d10 k3, PS) is 36%; for TGGGTACATGGCAGTG (sugars k3 d10 k3, PS) it is 74%; for TGTCGATGCCTTCTCG (sugars k3 d10 k3, PS) it is 28%. As for AATGTAAGTGATAGGT (sugars k3 d10 k3, PS), the target mRNA inhibition was determined as 80%. Still for that read-out and setting: the figure for AGCTGACCATGTTACA (sugars k3 d10 k3, PS) is -19%; for AACAGTAAGAGGGCAG (sugars k3 d10 k3, PS) it is 63%; for GAGCTGTGATGAGCTT (sugars k4 d8 k4, PS) it is 5%. CTCCAGGGAATGGATA (sugars k3 d10 k3, PS): the target mRNA inhibition amounted to 27%.

ACTACTATTGTGGAAA (sugars k3 d10 k3, PS): the target mRNA inhibition was 18%. TCCGGCTTGTCGATGC (sugars k3 d10 k3, PS): the target mRNA inhibition stood at 41%. On the same count and under the same terms, then CGCAGCATCGAACTCC (sugars k3 d10 k3, PS), with 33%; and GAGTCTTTGAGGCTGC (sugars k3 d10 k3, PS), with 34%.

Regarding AGGTAATCTGTATAGT (sugars k3 d10 k3, PS), the target mRNA inhibition was 62%. On the same count and under the same terms, then CCGACACGCGCCGCTC (sugars k3 d10 k3, PS), with 30%; and TTAGGATAATATACCC (sugars k3 d10 k3, PS), with 52%. For GAGGGTCAAAAAGATG (sugars k3 d10 k3, PS), the target mRNA inhibition stood at 33%. In the case of TCAAAGCGCACCGCAG (sugars k3 d10 k3, PS), the target mRNA inhibition worked out at 43%. As for GCGACTAACTCTCCTG (sugars k3 d10 k3, PS), the target mRNA inhibition was 70%.

For TCCAGAAAATTCAGCT (sugars k4 d8 k4, PS), the target mRNA inhibition was 26%.

Regarding TGGTAGGTAGGCACCT (sugars k3 d10 k3, PS), the target mRNA inhibition amounted to 35%.

TCGCATCCAGACCCTT (sugars k3 d10 k3, PS): the target mRNA inhibition came to 28%. On the same count and under the same terms, then GCACAGACATACCTAC (sugars k3 d10 k3, PS), with 46%.

TAAATCACCCTGGTCA (sugars k3 d10 k3, PS): the target mRNA inhibition was found to be 22%. On to CCCCGCGGTCCCGCTG (sugars k3 d10 k3, PS), for which the target mRNA inhibition came to 41%.

Take GAGTCACCTGGAATCT (sugars k3 d10 k3, PS): the target mRNA inhibition stood at 43%. On to CTAGAACATGATGAGA (sugars k3 d10 k3, PS), for which the target mRNA inhibition came out at 29%.

Take AGCTGGTAGGTCAAAC (sugars k3 d10 k3, PS): the target mRNA inhibition is -5%. Same read-out and setting: then CCGGAGCAGGCCCGGG (sugars k3 d10 k3, PS), with -13%; and CCCACGAAGGGCAGTG (sugars k3 d10 k3, PS), with 35%. As to GGCCAACGACTCCACA (sugars k3 d10 k3, PS), the target mRNA inhibition came to 23%. Same read-out and setting: then GAGCAAAGCAAGTGTC (sugars k3 d10 k3, PS), with 42%; and GAAAGAGCTGGTAGGT (sugars k3 d10 k3, PS), with 0%. Turning to CCCCGGAAGAAGGCAC (sugars k3 d10 k3, PS), the target mRNA inhibition amounted to 36%. On the same count and under the same terms, the figure for GCAGAGCAATTTACAT (sugars k3 d10 k3, PS) is 66%; for CTAGAAAGTGATGCTC (sugars k3 d10 k3, PS) it is 39%. Turning to AAATGAGTCGGTCACT (sugars k3 d10 k3, PS), the target mRNA inhibition stood at 55%. In the case of TAGTGCTGTGCAGACC (sugars k3 d10 k3, PS), the target mRNA inhibition turned out to be 32%. Same read-out and setting: the figure for GACTTAAGCTAAACTC (sugars k3 d10 k3, PS) is 58%; for AAAGTAACTGACACGC (sugars k3 d10 k3, PS) it is 67%; for ACGACAGCATAGCATT (sugars k3 d10 k3, PS) it is 67%. Still for that read-out and setting: then GGCTAGGCCACCGCAC (sugars k3 d10 k3, PS), with 28%; and ATGACATGCTTTGTCC (sugars k3 d10 k3, PS), with 46%; and CATGGGAGATCCGGCA (sugars k3 d10 k3, PS), with 41%. On the same count and under the same terms, then CCGAATAGGACCCCTA (sugars k3 d10 k3, PS), with 32%. For the sequence AACCAGTACAGTCCAC (sugars k3 d10 k3, PS), the target mRNA inhibition was 35%.

With TTCAACACACTGTCTG (sugars k3 d10 k3, PS), the target mRNA inhibition is -31%.

On to TAGTATGAGAAACGGC (sugars k3 d10 k3, PS), for which the target mRNA inhibition was found to be 78%. Still for that read-out and setting: the figure for ACAAAATGGTGTGTAA (sugars k3 d10 k3, PS) is 7%.
